Legend:
human osteoclasts = assay: Calcium Response in human osteoclasts; assay type: cell-based; details: for Calcium Response: agonist alone (FIG. 1, FIG. 2)

Row | melting point [°C] | Compound | Block of the Calcium Response initiated by PGE2 (human osteoclasts; response initiated by PGE2 (FIG. 3)) | Calcium Response (human osteoclasts)
1 | 165 to 166 | O=C(CCc1ccc(F)cc1C[C@@H]1[C@H](c2nc(C(=O)NCCCCC3CCCCC3)co2)[C@H]2CC[C@H]1O2)NC(CO)CO [Example 1, N-(1,3-Dihydroxyprop-2-yl)-3-(2-{(1R,2R,3S,4R)-3-[4-(4-cyclohexyl-butylcarbamoyl)-oxazol-2-yl]-7-oxa-bicyclo[2.2.1]hept-2-ylmethyl}-4-fluoro-phenyl)-propionamide] | blocked | –
2 | – | CCCCC[C@H](O)/C=C/[C@H]1[C@H](O)CC(=O)[C@@H]1C/C=C\CCCC(=O)OCC(O)CO (stereo partly shown) [PG-2 Glycerol Ester] | – | induces a Calcium Response
3 | – | CCCCC[C@H](O)/C=C/[C@H]1[C@H](O)CC(=O)[C@@H]1C/C=C\CCCC(=O)O [PG-2] | – | does not cause a Calcium Response

— patent publication US20100256385A1, “PROSTAGLANDIN E RECEPTOR ANTAGONISTS” (ALLERGAN, INC., priority 2009, published 2010)
